Measurements taken from article PMC3520070 (Journal of medicinal chemistry, 2011).
Entries after “also recorded” stand apart in the source; their conditions may differ.

Tests used:
MDA-MB-231 cancer cells = test: Trypan blue cell death assay, MDA-MB-231; type: cell-based, human; details: 1 μM for 24 hours
Tolerability in dogs = type: in vivo; details: IND-enabling studies, data not shown
Pharmacokinetics in dogs = type: in vivo; details: beagle, dog, po, 10 mg/kg
[1] = system: cIAP1, procaspase-8 and PARP in MDA-MB-231 xenograft tissues; test: In vivo pharmacodynamics in MDA-MB-231 xenograft tissues; set-up: species or system SCID mice
Metabolic stability = type: in vitro ADME; details: IND-enabling studies, data not shown
XIAP BIR3 protein [2] = target: T1, XIAP BIR3 protein (Homo sapiens, UniProt P98170); test: Cell-free functional assay against XIAP BIR3; type: biochemical; details: 1 μM compound, 500 nM XIAP BIR3, MDA-MB-231 cell lysates
T1 sequence (P98170 241-356): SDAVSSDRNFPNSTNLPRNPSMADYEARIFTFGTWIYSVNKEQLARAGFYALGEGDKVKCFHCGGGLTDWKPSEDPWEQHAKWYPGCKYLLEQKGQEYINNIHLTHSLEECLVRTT

[3] = system: more than 100 human cancer cell lines; test: Screening against more than 100 human cancer cell lines; type: cell-based
[4] = Pharmacokinetics in non-human primates; type: in vivo, cynomolgus monkeys; details: cynomolgus monkey, plasma, po, 5 mg/kg
XIAP BIR3 protein [5] = target: T1, XIAP BIR3 protein; test: Competitive fluorescence-polarization binding assay, XIAP BIR3; details: XIAP BIR3, cIAP1 BIR3 and cIAP2 BIR3
[6] = system: caspase-3 and PARP in MDA-MB-231 cancer cells; test: Western blot of caspase-3 activation and PARP cleavage, MDA-MB-231; type: cell-based, human; details: 1.5 μM, in as little as 12 hr
[7] = system: Primary human normal prostate epithelial cells; test: Trypan blue cell death assay, primary prostate epithelial cells; type: cell-based; details: concentrations as high as 10 μM, 48 hours
[8] = Toxicity evaluation in mice; type: in vivo; details: 200 mg/kg, daily for 5 days a week for 2–3 weeks via oral gavage
[9] = system: MDA-MB-231 xenograft tumors; test: In vivo antitumor efficacy, MDA-MB-231 xenograft model
cIAP1 = cIAP1 (Homo sapiens, UniProt Q13490); test: cIAP1 degradation in MDA-MB-231 cells; type: cell-based
Sequence of cIAP1 (Q13490 whole entry): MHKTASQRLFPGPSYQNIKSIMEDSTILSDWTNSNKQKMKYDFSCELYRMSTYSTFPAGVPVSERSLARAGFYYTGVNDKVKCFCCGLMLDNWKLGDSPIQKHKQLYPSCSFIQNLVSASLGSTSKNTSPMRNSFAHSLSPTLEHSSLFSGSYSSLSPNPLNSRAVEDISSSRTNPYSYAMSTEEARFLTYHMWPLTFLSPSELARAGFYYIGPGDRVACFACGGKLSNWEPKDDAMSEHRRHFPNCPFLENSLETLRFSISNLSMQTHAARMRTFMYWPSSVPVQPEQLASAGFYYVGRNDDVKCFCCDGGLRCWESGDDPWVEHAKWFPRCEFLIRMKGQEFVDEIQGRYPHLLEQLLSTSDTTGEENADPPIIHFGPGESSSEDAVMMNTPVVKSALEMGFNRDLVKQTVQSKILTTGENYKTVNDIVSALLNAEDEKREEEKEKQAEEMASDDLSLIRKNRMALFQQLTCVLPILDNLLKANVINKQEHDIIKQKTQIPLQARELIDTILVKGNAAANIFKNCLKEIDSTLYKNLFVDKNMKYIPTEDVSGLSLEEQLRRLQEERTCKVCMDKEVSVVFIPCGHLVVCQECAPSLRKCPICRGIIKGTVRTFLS

[10] = system: normal-like human breast epithelial MCF-12F cells; test: Trypan blue cell death assay, MCF-12F; type: cell-based; details: concentrations as high as 10 μM, 48 hours
[11] = Pharmacokinetics in plasma of SCID mice bearing MDA-MB-231 tumors; details: mouse, in vivo
[12] = Pharmacokinetics in MDA-MB-231 tumor tissues of SCID mice; type: in vivo; details: for Cmax: SCID, mouse, in vivo
[13] = 7.5 mg/kg intravenously, 24-h time-point

For CN[C@@H](C)C(=O)N[C@H]1CN(C(=O)CC(C)C)CC[C@H]2CC[C@@H](C(=O)NC(c3ccccc3)c3ccccc3)N2C1=O [compound 2, (5S,8S,10aR)-N-benzhydryl-5-((S)-2-(methylamino)propanamido)-3-(3-methylbutanoyl)-6-oxodeca-hydropyrrolo[1,2-a][1,5]diazocine-8-carboxamide], the “cells that underwent cell death” value (MDA-MB-231 cancer cells) was “More than 50%”, the tolerability in dogs (Tolerability in dogs) was “well tolerated” and the AUC (Pharmacokinetics in dogs; in vivo) was 198 µg·h/mL. The Cmax (Pharmacokinetics in dogs; plasma) was 17 µM, the “processing of procaspase-8 in tumor tissues” value ([1]; single oral dose 100 mg/kg, 2-hr and 6-hr time-points) was “effectively induces processing of procaspase-8” and the “PARP cleavage in tumor tissues” value ([1]; single oral dose 100 mg/kg, at 2 hr, maximum at 6 hr, still evident after 16 hr) was “cleavage of the apoptosis marker, PARP”. The “cIAP1 degradation in tumor tissues” value ([1]; single oral dose 100 mg/kg, at the 2-hr time-point, persists for 16 hr) was “effectively induced cIAP1 degradation”, the metabolic stability (Metabolic stability) was “good metabolic stability” and the “antagonism of XIAP BIR3 and restoration of caspase-9 activity” value (XIAP BIR3 protein [2]) was “completely antagonizes XIAP and restores the activity of caspase-9”. For the same compound, the “share of cell lines in which cell growth is effectively inhibited” value [3] was “approximately 15%”, the Cmax [4] was about 4 µM and the “times higher affinities than the Smac AVPI peptide” value (XIAP BIR3 protein [5]) was 50–100 times. For the same compound, the “activation of caspase-3 and cleavage of PARP” value [6] was “robust activation of caspase-3 and cleavage of PARP”, the “toxicity (cell death) against normal cells” value [7] was “minimal toxicity” and the tolerability [8] was “well tolerated”. For the same compound, the antitumor activity ([9]; 10 mg/kg oral gavage daily, 5 days a week for 2 weeks) was “no significant antitumor activity”, the toxicity to animals ([9]; oral dosing, MDA-MB-231 xenograft model in mice) was “minimal toxicity; also recorded: no signs of toxicity” and the cIAP1 degradation (cIAP1; 100 nM for 15 min) was “complete degradation”. The “induction of cIAP1 degradation” value (cIAP1; at concentrations as low as 10 nM) was “effectively induces cIAP1 degradation”, the “toxicity (cell death) against normal-like cells” value [10] was “minimal toxicity” and the Cmax ([11]; iv, 10 mg/kg) was 5 µM. For the same compound, the Cmax ([11]; po, 10 mg/kg) was 1.5 µM, the Cmax ([11]; po, 30 mg/kg) was 2 µM and the Cmax ([11]; po, 100 mg/kg) was 9.9 µM. For the same compound, the tumor tissue penetration ([12]; SCID mice bearing MDA-MB-231 tumors) was “excellent tumor tissue penetration”, the Cmax ([12]; iv, 10 mg/kg) was 6 µM and the Cmax ([12]; po, 10 mg/kg) was 0.5 µM. For the same compound, the Cmax ([12]; po, 30 mg/kg) was 3.9 µM and the Cmax ([12]; po, 100 mg/kg) was 18.2 µM.

With CC(=O)O[C@@]12CO[C@@H]1C[C@H](O)[C@@]1(C)C(=O)[C@H](O)C3=C(C)[C@@H](OC(=O)[C@H](O)[C@@H](NC(=O)OC(C)(C)C)c4ccccc4)C[C@@](O)([C@@H](OC(=O)c4ccccc4)[C@H]21)C3(C)C.O.O.O [TXT, reference compound] the “PARP cleavage in tumor tissues” value [1, 13] was “minimal effect”, the “cIAP1 degradation in tumor tissues” value [1, 13] was “minimal effect” and the “processing of procaspase-8 in tumor tissues” value [1, 13] was “induces the processing of procaspase-8”. For the same compound, the antitumor activity ([9]; 7.5 mg/kg intravenously, once a week for 2 weeks) was “strong antitumor activity”.
